Source: patent publication US10942183B2, “Methods of detecting progesterone receptor and of detecting an expression level” (REGENTS OF THE UNIVERSITY OF MINNESOTA, priority 2017, dated 2021)

Legend:
breast cancer = settings: human, in vivo; cited from earlier work
[1] = test system: SLC37A2 expression in MCF-7 cells; test: SLC37A2 mRNA expression by RT-qPCR in MCF-7 cells; assay type: cell-based
Protocol: (§1) For reverse transcription quantitative polymerase chain reaction (RT-qPCR) assays, 5×10^5 cells/well were plated in six-well dishes, serum starved in modified IMEM for one day before treatment. RNA was extracted using TriPure reagent (Roche, Basel, Switzerland) and cDNA was created using the qScript cDNA SuperMix kit (Quanta Biosciences, Beverly, Mass.). Relative expression levels were determined by qPCR assays performed on a Roche Light-Cycler II using SYBR green master-mix (Roche, Basel, Switzerland). Target gene quantification levels were normalized to the expression of standard housekeeper genes: TBP, ACTB, 18S, and/or GAPDH.
(§2) PR cooperation with one or more RUNX factors may be a mechanism for promoter selection by uniquely modified receptors. The family of RUNX transcription factors (RUNX1, 2, and 3) has complex roles in development and tumor formation with both tumor suppressive and tumor-promoting activities. […] From the GSEA results, SLC37A2, a candidate PR target gene containing multiple RUNX2 binding motifs immediately upstream and within the gene, was identified (FIG. 7A). SLC37A2 is a glucose-6-phosphate transporter expressed in monocytes as well as breast and cervical tissues. […] PR/progestin-dependent regulation of SLC37A2 mRNA expression in multiple cell line models was thus measured. […]

[2] = test system: SLC37A2 expression in BT474 cells; test: SLC37A2 mRNA expression by RT-qPCR in BT474 cells; assay type: cell-based; settings: unmodified BT474 cells, progestin plus onapristone
Protocol: as §1, §2

[3] = test system: human breast tumor tissue (tumor explants); test: Breast tumor explants cultured ex vivo, Ki-67 IHC (proliferation); assay type: cell-based; settings: ER+/PR+ tumor explants, 48 hours; progesterone 10 nM; estrogen 1 nM and 10 nM; n=6
Source text: De-identified breast tumor samples were collected after surgery and immediately processed for tissue explant maintenance on sponges in cell culture medium, as previously described (Ravindranathan et al. Nature Communications 2013, 4:1923). Samples were derived from six patients pathologically diagnosed with invasive ductal carcinoma (IDC) and scored positive for ER (94-100%) and PR (1-100%), and negative for HER2 expression. Tissue explants were starved in media containing hormone-stripped FBS for 24 hours, and then treated for 48 hours with (1) vehicle, (2) 1 nM estradiol, (3) 10 nM estradiol, (4) 1 nM progesterone, (5) 10 nM progesterone prior to processing for quantitation of Ki-67 levels by IHC. Across treatment conditions, statistical significance was tested for using one-way analysis-of-variance (ANOVA) followed by pairwise testing of all treatment groups using the TukeyHSD post-test with R statistical software (R Core Team: R: A language and environment for statistical computing. R Foundation for Statistical Computing, Vienna, Austria 2015, [available on the world wide web at r-project.org/]). In additional experiments, six explants were similarly treated with estrogen or progesterone (2 hours) but in combination with 1 uM U0126 (to inhibit ERKs 1/2) and phospho-Ser294 PR levels were measured by IHC. […]

ERK1/2 = test: Breast tumor explants, phospho-ERK1/2 IHC; assay type: cell-based, human; settings: progesterone 10 nM, 2 hours

CC#C[C@]1(O)CC[C@H]2[C@@H]3CCC4=CC(=O)CCC4=C3[C@@H](c3ccc(N(C)C)cc3)C[C@@]21C [mifepristone]
outcome in clinical trials for breast cancer (breast cancer): has not been successful
effect on progestin-upregulated SLC37A2 expression ([1]; MCF-7 overexpressing K388R PR, progestin plus mifepristone): blocked
agonist activity on SLC37A2 expression, antiprogestin alone ([1]; cells expressing KR PRs, RU486 treatment alone): weak partial agonist activity

CN(C)c1ccc([C@H]2C[C@]3(C)[C@@H](CC[C@]3(O)CCCO)[C@@H]3CCC4=CC(=O)CCC4=C32)cc1 [onapristone]
effect on progestin-stimulated SLC37A2 mRNA expression [2]: effectively blocked

CC(=O)[C@H]1CC[C@H]2[C@@H]3CCC4=CC(=O)CC[C@]4(C)[C@H]3CC[C@]12C [progesterone]
percentage of Ki67-positive cells compared to vehicle treatment [3]: significantly higher percentage of Ki67-positive cells
activation of ERK1/2 (phospho-ERK1/2) in tumor explants (ERK1/2): accompanied by activation of ERK1/2
